Experiments:
Sodium channel, Site 2 = assay: Selectivity panel; assay type: binding
Source text: (§1) The selectivity of T‐495 at 10 μmol/L against a panel of 106 targets, including receptors, enzymes, ion channels, and transporters, was characterized (Eurofins Panlabs Taiwan Ltd., Taipei, Taiwan).

Transporter, GABA = assay: Selectivity panel; assay type: binding
Source text: as §1

Opiate μ (OP3, MOP) = molecular target: T1, Opiate μ (OP3, MOP) (Homo sapiens, UniProt P35372); assay: Selectivity panel; assay type: binding
T1 construct: purchased Eurofins Panlabs Taiwan Ltd
T1 sequence (P35372 whole entry): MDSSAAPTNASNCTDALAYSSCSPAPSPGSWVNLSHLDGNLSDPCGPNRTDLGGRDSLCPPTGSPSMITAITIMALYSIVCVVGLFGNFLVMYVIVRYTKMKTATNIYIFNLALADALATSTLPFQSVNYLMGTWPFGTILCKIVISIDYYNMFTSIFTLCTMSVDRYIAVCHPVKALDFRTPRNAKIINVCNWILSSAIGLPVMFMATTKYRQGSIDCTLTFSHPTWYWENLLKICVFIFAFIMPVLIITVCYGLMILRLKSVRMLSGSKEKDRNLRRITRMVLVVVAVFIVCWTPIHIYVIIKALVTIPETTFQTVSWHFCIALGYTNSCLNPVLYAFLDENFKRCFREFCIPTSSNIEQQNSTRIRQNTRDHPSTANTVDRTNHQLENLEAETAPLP
Source text: as §1

Adrenergic β2 = molecular target: T2, Adrenergic β2 (Homo sapiens, UniProt P07550); assay: Selectivity panel; assay type: binding
T2 construct: purchased Eurofins Panlabs Taiwan Ltd
T2 sequence (P07550 whole entry): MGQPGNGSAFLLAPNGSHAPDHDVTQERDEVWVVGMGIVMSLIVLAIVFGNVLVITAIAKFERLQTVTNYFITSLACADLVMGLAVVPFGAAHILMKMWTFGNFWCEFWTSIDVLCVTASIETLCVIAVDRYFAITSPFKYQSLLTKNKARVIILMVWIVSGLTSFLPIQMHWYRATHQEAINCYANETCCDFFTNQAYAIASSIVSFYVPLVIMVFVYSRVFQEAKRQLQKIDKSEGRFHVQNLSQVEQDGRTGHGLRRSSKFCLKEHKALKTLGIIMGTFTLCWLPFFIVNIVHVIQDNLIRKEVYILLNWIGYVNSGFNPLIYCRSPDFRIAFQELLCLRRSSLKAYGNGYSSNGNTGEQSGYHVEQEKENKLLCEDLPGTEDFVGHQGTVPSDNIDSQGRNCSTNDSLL
Source text: as §1

Dopamine D1 = molecular target: T3, Dopamine D1 (Homo sapiens, UniProt P21728); assay: Selectivity panel; assay type: binding
T3 construct: purchased Eurofins Panlabs Taiwan Ltd
T3 sequence (P21728 whole entry): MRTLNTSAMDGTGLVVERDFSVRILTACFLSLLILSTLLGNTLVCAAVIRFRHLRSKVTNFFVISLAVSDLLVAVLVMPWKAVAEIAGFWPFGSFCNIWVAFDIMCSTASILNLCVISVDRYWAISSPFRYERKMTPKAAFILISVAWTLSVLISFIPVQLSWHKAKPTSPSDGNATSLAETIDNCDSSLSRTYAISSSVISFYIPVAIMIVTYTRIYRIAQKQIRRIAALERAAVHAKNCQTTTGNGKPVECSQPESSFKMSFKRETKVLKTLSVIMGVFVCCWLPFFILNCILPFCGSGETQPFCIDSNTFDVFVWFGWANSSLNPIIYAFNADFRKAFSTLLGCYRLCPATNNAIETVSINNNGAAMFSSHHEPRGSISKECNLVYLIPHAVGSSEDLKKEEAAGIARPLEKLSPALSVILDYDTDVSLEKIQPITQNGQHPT
Source text: as §1

Progesterone PR-B = molecular target: T4, Progesterone PR-B (Homo sapiens, UniProt P06401); assay: Selectivity panel; assay type: binding
T4 construct: purchased Eurofins Panlabs Taiwan Ltd
T4 sequence (P06401 whole entry): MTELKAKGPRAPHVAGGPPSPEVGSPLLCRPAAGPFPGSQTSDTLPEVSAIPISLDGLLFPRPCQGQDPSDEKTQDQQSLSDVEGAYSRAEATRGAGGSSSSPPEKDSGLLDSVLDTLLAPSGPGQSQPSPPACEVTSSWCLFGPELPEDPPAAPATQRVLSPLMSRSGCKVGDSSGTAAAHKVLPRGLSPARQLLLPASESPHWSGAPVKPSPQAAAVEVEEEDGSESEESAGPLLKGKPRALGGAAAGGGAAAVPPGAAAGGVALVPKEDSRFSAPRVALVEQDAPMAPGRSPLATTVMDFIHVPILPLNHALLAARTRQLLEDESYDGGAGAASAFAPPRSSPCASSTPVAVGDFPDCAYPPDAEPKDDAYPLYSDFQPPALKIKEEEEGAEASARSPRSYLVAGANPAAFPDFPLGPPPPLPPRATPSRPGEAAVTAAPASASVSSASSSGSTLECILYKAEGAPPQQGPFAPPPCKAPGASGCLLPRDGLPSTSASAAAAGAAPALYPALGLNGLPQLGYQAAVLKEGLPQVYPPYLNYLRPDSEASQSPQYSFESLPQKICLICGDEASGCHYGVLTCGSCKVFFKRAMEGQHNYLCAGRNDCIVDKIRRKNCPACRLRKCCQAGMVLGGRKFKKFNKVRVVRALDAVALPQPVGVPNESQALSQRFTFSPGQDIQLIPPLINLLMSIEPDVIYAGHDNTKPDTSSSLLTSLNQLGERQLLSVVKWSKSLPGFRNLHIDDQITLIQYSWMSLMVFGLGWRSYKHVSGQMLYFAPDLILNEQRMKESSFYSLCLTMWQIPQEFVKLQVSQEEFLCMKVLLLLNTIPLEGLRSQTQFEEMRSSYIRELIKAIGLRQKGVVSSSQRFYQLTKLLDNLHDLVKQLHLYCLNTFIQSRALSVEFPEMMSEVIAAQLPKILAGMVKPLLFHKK
Source text: as §1

human M1R = molecular target: T5, human M1R (Homo sapiens, UniProt P11229); assay: [3H]‐NMS binding assay; design: expressed in transfected cells
T5 sequence (P11229 1-460): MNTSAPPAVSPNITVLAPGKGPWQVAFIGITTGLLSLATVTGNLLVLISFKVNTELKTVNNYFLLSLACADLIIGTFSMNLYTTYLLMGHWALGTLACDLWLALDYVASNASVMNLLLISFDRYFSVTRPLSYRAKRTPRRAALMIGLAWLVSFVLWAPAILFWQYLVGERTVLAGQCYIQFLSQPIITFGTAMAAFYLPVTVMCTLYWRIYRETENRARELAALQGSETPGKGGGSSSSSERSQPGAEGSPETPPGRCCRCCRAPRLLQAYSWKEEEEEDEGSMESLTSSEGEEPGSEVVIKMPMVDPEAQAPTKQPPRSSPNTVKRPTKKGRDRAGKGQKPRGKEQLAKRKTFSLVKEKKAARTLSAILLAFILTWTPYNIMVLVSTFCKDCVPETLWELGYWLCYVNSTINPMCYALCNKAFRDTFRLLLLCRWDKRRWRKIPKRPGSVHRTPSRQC
Method: Cell membranes from FreeStyle 293 cells transiently expressing human M1R were incubated with T‐495 (0.01‐30 μmol/L) and 0.2 nmol/L [^3H]‐NMS (PerkinElmer) in assay buffer as described above. After 2 hours at room temperature, the binding was terminated by filtration through GF/C filter plates using a cell harvester and washed five times with 300 μl of 50 mmol/L Tris‐HCl. GF/C plates were dried at 42°C and then 25 μl of microscint 0 was added. Radioactivity was measured by Topcount.

selectivity panel = settings: cited from earlier work

Cc1c(Cc2ccc(Cl)nc2)cc2c(c1Cl)OCN([C@H]1CCC[C@@H]1O)C2=O [T‐495, 8‐chloro‐6‐((6‐chloropyridin‐3‐yl)methyl)‐3‐((1S,2S)‐2‐hydroxycyclopentyl)‐7‐methyl‐2,3‐dihydro‐4H‐1,3‐benzoxazin‐4‐one]
% inhibition at 10 μM (Sodium channel, Site 2): 1%
% inhibition at 10 μM (Transporter, GABA): -7%
inhibition at 10 µM (Opiate μ (OP3, MOP)): 12%
inhibition at 10 µM (Adrenergic β2): 15%
inhibition at 10 µM (Dopamine D1): -7%
inhibition at 10 µM (Progesterone PR-B): 21%
concentration without inhibition of [3H]‐NMS binding relative to that required for procognitive efficacy (human M1R): up to 100 fold
inhibition of [3H]‐NMS binding to M1R (human M1R; T‐495 concentrations below 30 μmol/L): did not inhibit

Cc1ccc(Cc2cc3c(=O)n([C@H]4CCCC[C@@H]4O)cnc3c3ccccc23)cn1 [MK‐7622, 3‐((1S,2S)‐2‐hydroxycyclohexyl)‐6‐((6‐methylpyridin‐3‐yl)methyl)benzo[h]quinazolin‐4(3H)‐one, reference compound]
selectivity in a selectivity panel (selectivity panel): exhibited inhibitory activities only against 5‐lipoxygenase and phosphodiesterase 4

Source: article PMC6986443, “T‐495, a novel low cooperative M1 receptor positive allosteric modulator, improves memory deficits associated with cholinergic dysfunction and is characterized by low gastrointestinal side effect risk” (Pharmacology Research & Perspectives, 2020)
